The record followed here is BindingDB's records for doi:10.1007/s002100000299 (University of Oslo, 2001).

This test has as its target 5-hydroxytryptamine receptor 4 (Homo sapiens, UniProt Q13639).

Where “and” joins values, the source holds several entries; their conditions need not be identical. Equal entries are not always repeated.

5-hydroxytryptamine receptor 4, sequence (Q13639 whole entry): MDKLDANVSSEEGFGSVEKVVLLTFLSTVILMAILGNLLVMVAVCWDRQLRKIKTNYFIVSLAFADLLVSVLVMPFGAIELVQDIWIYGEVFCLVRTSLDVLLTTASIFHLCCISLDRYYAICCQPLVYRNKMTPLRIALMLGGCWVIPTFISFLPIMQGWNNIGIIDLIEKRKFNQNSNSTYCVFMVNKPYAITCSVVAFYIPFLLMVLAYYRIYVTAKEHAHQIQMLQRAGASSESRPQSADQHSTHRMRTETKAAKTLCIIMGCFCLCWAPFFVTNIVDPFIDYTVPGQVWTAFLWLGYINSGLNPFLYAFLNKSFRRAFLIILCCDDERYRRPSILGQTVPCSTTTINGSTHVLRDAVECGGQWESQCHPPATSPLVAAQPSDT

One may read the Ki as a dissociation constant, usually derived from enzyme kinetics or from competition with a known ligand. Consider `CN1C2CCC1CC(OC(=O)c1c[nH]c3ccccc13)C2` (stereo not given), for which the Ki is 158 nM and 79.4 nM.

As to `O=C(OCCN1CCCCC1)c1c[nH]c2ccccc12` [CAS_135938-17-9], the Ki is 2 nM and 1.3 nM.

As to `Cn1cc(C(=O)OCC2CCN(CCNS(C)(=O)=O)CC2)c2ccccc21` [GR 113808], the inhibitory constant (Ki) is 0.079 nM and 0.05 nM.

For `NCCc1c[nH]c2ccc(C(N)=O)cc12` [[3H]-5-carboxamidotryptamine], the inhibition constant Ki is more than 10000 nM.

With `COc1ccc2[nH]cc(CCN)c2c1` [tryptamine, 5-Methoxy], the inhibition constant (Ki) is 316 nM and 251 nM.
